Active and inactive are the calls of the source. The calls are words filed in the database; no cut-off is given here.
Assays:
[1] = Selectivity index, ratio of CC50 for monkey LLC-MK2 cells to IC50 for antitrypanosomal activity against intracellular amastigote form of Trypanosoma cruzi Tulahuen strain infected in monkey LLC-MK2 cells; format: toxicity, cell-based; details: read-out: Ratio CC50/IC50
[2] = Cytotoxicity against monkey LLC-MK2 cells assessed as reduction in cell viability incubated for 72 hrs by MTT assay; format: cell-based, Macaca mulatta; details: rhesus monkey
Trypanosoma cruzi [3] = test: (§1) Antitrypanosomal activity against intracellular amastigote form of Trypanosoma cruzi Tulahuen strain infected in monkey LLC-MK2 cells assessed as reduction in parasite viability incubated for 72 hrs by beta-galactosidase reporter gene assay; format: functional, organism-based
Trypanosoma cruzi [4] = test: as §1, with “Potency index, ratio of benznidazole IC50 to test compound IC50 for antitrypanosomal” for “Antitrypanosomal”; format: functional
[5] = Reduction in inflammatory cell infiltration in heart of BALB/c mouse infected with blood trypomastigote form of Trypanosoma cruzi strain Y at 25 mg/kg, po administered via gavage daily for 15 days starting from 2 days post-infection and measured on 16th day post-infection by haematoxylin and eosin staining based microscopic analysis relative to control; format: functional; details: 360 h, time 15 day
[6] = Hepatotoxicity in BALB/c mouse infected with blood trypomastigote form of Trypanosoma cruzi strain Y assessed as AST level in plasma at 25 mg/kg, po administered via gavage daily for 15 days starting from 2 days post-infection and measured on 16th day post-infection; format: toxicity, organism-based; details: in vivo, 360 h, time 15 day
[7] = Hepatotoxicity in BALB/c mouse infected with blood trypomastigote form of Trypanosoma cruzi strain Y assessed as ALT level in plasma at 25 mg/kg, po administered via gavage daily for 15 days starting from 2 days post-infection and measured on 16th day post-infection; format: toxicity, organism-based; details: in vivo, 360 h, time 15 day
[8] = Renal toxicity in BALB/c mouse infected with blood trypomastigote form of Trypanosoma cruzi strain Y assessed as creatinine level in plasma at 25 mg/kg, po administered via gavage daily for 15 days starting from 2 days post-infection and measured on 16th day post-infection; format: organism-based; details: in vivo, 360 h, time 15 day
[9] = Cardiac toxicity in BALB/c mouse infected with blood trypomastigote form of Trypanosoma cruzi strain Y assessed as CK-MB level in plasma at 25 mg/kg, po administered via gavage daily for 15 days starting from 2 days post-infection and measured on 16th day post-infection; format: organism-based; details: in vivo, 360 h, time 15 day
Trypanosoma cruzi [10] = test: (§2) Antitrypanosomal activity against blood trypomastigote form of Trypanosoma cruzi strain Y infected in BALB/c mouse assessed as reduction in amastigote nest in host heart at 25 mg/kg, po administered via gavage daily for 15 days starting from 2 days post-infection and measured on 16th day post-infection by haematoxylin and eosin staining based microscopic analysis; format: functional; details: for inhibition in vivo at 25 mg/kg: 360 h, time 15 day
Trypanosoma cruzi [11] = test: as §2, with “parasite DNA load” for “amastigote nest”, “qPCR” for “haematoxylin and eosin staining based microscopic”, “analysis relative to control” for “analysis”; format: functional; details: for Activity: time 15.0 day
Trypanosoma cruzi [12] = test: as §2, with “parasitemia” for “amastigote nest in host heart”, “7th” for “16th”, “optical microscopy relative to control” for “haematoxylin and eosin staining based microscopic analysis”; format: functional; details: 360 h, time 15 day
Trypanosoma cruzi [13] = test: as §2, with “parasitemia” for “amastigote nest in host heart”, “13th” for “16th”, “optical microscopy relative to control” for “haematoxylin and eosin staining based microscopic analysis”; format: functional; details: 360 h, time 15 day
[14] = Trypanosoma cruzi, Tulahuen, LLC-MK2, 72 h, read-out: IC50

Row | SMILES | selectivity ratio [1] | CC50 at 72 h [2] [µM] | IC50 (Trypanosoma cruzi [3]; [14]) [µM] | further results
1 | CC(=O)N1N=C(c2cc(-c3ccccc3)nc3c2c(C)nn3-c2ccccc2)OC1c1cccc(O)c1 (stereo not drawn) | 1.63 | 17.2 | 10.5 | 
2 | Cc1nn(-c2ccccc2)c2nc(-c3ccccc3)cc(C(=O)N/N=C/c3ccc(O)c(O)c3)c12 | 3.11 | 71.2 | 22.9 | 
3 | Cc1nn(-c2ccccc2)c2nc(-c3ccccc3)cc(C(=O)N/N=C/c3cccc(O)c3)c12 | 3 | 69.6 | 23.2 | 
4 | Cc1nn(-c2ccccc2)c2nc(-c3ccccc3)cc(C(=O)N/N=C/c3ccc(O)cc3)c12 | > 250 | > 250 | 21.4 | 
5 | CC(=O)Oc1ccc(C2OC(c3cc(-c4ccccc4)nc4c3c(C)nn4-c3ccccc3)=NN2C(C)=O)cc1 (stereo not drawn) | 2.86 | 64.8 | 22.6 | 
6 | Cc1nn(-c2ccccc2)c2nc(-c3ccccc3)cc(C(=O)N/N=C/c3ccccc3O)c12 | > 235 | > 200 | 0.85 | Ratio IC50 (Trypanosoma cruzi [4]): 4; inhibition in vivo at 25 mg/kg [5]: 62.5%; Activity [6]: Non-Toxic; Activity [7]: Non-Toxic; Activity [8]: Non-Toxic; Activity [9]: Toxic; Activity (Trypanosoma cruzi [10]; time 15.0 day): inactive; Activity (Trypanosoma cruzi [11]): inactive; inhibition in vivo at 25 mg/kg (Trypanosoma cruzi [12]): 44.7%; inhibition in vivo at 25 mg/kg (Trypanosoma cruzi [13]): 14.5%
7 | COc1ccc(/C=N/NC(=O)c2cc(-c3ccccc3)nc3c2c(C)nn3-c2ccccc2)cc1O | 2.52 | 53 | 21 | 
8 | CC(=O)Oc1ccc(C2OC(c3cc(-c4ccccc4)nc4c3c(C)nn4-c3ccccc3)=NN2C(C)=O)cc1OC(C)=O (stereo not drawn) | 1.6 | 54.5 | 33.9 | 
9 | CC(=O)Oc1cccc(C2OC(c3cc(-c4ccccc4)nc4c3c(C)nn4-c3ccccc3)=NN2C(C)=O)c1 (stereo not drawn) | > 6.15 | > 100 | 16.2 | 
10 | CC(=O)N1N=C(c2cc(-c3ccccc3)nc3c2c(C)nn3-c2ccccc2)OC1c1ccc(O)cc1 (stereo not drawn) | 1.94 | 34.4 | 17.7 | 
11 | O=C(Cn1ccnc1[N+](=O)[O-])NCc1ccccc1 [BENZNIDAZOLE] | > 50.2 | > 200 | 3.98 | inhibition in vivo at 25 mg/kg [5]: 76%; Activity [6]: Non-Toxic; Activity [7]: Non-Toxic; Activity [8]: Non-Toxic; Activity [9]: Non-Toxic; inhibition in vivo at 25 mg/kg (Trypanosoma cruzi [10]): 100%; inhibition in vivo at 25 mg/kg (Trypanosoma cruzi [11]; 360 h, time 15 day): 99%
12 | COc1ccc(C2OC(c3cc(-c4ccccc4)nc4c3c(C)nn4-c3ccccc3)=NN2C(C)=O)cc1OC(C)=O (stereo not drawn) |  |  |  | IC50 (Trypanosoma cruzi [3]; llc-mk2): Nd(Insoluble)
13 | CC(=O)Oc1ccccc1C1OC(c2cc(-c3ccccc3)nc3c2c(C)nn3-c2ccccc2)=NN1C(C)=O (stereo not drawn) | > 90.1 | > 100 | 1.11 | inhibition in vivo at 25 mg/kg [5]: 51%; Activity [6]: Non-Toxic; Activity [7]: Non-Toxic; Activity [8]: Non-Toxic; Activity [9]: Non-Toxic; inhibition in vivo at 25 mg/kg (Trypanosoma cruzi [10]): 57%; Activity (Trypanosoma cruzi [11]): inactive; inhibition in vivo at 25 mg/kg (Trypanosoma cruzi [12]): 46.1%; inhibition in vivo at 25 mg/kg (Trypanosoma cruzi [13]): 53%

From ChEMBL document CHEMBL4673293, “Trypanocidal activity of new 1,6-diphenyl-1H-pyrazolo[3,4-b]pyridine derivatives: Synthesis, in vitro and in vivo studies” (Bioorg Med Chem, 2021)
